From ChEMBL document CHEMBL5653633, “G1 cell cycle arrest and apoptosis are induced in NIH 3T3 cells by KN-93, an inhibitor of CaMK-II (the multifunctional Ca2+/CaM kinase)” (Cell Growth Differ, 1995)
The source made the active and inactive calls. The rule behind the calls is not given here.

What was measured:
NIH3T3 [1] = assay: Inhibition of CAMK-II in mouse NIH3T3 cells assessed as morphological changes at 10 to 24 uM incubated for 1 day in presence of fetal bovine serum by phase contrast microscopy analysis; type: cell-based; details: dose 10-24 µM
NIH3T3 [2] = assay: Cytotoxicity against IGF-1 stimulated mouse NIH3T3 cells assessed as growth inhibition at 5 to 25 uM incubated for 72 hrs by MTT assay; type: functional, cell-based; details: dose 5-25 µM
NIH3T3 [3] = assay: Induction of cell cycle arrest in mouse NIH3T3 cells assessed as accumulation of hypodiploid cells at 24 uM incubated for 3 days by propidium iodide staining based flow cytometry analysis; type: toxicity; details: nih3t3, 72 h, time 3 day
NIH3T3 [4] = assay: Inhibition of CAMK-II in mouse NIH3T3 cells assessed as decrease in cell number by MTT assay; type: cell-based
NIH3T3 [5] = assay: Induction of apoptosis in mouse NIH3T3 cells assessed as decreased cell viability in presence of terminal transferase and Fl-dUTP by TUNEL staining based fluorescence microscopy analysis; type: toxicity; details: dose lower 10 µM, time lower 2 day, dose upper 24 µM, time upper 3 day
NIH3T3 [6] = assay: Inhibition of CAMK-II in mouse NIH3T3 cells assessed as decrease in cell number at 16 to 24 uM incubated for 3 days by MTT assay; type: cell-based; details: dose 16-24 µM, time 3.0 day
NIH3T3 [7] = assay: Inhibition of CAMK-II in mouse NIH3T3 cells assessed as inhibition of cell growth at 4 to 8 uM incubated for 3 days by MTT assay; type: cell-based; details: dose 4-8 µM, time 3.0 day
NIH3T3 [8] = assay: Cytotoxicity against IGF-1 stimulated mouse NIH3T3 cells assessed as growth inhibition incubated for 72 hrs by MTT assay; type: functional, cell-based; details: NIH3T3, 72 h
NIH3T3 [9] = assay: Cytotoxicity against PDGF-BB stimulated mouse NIH3T3 cells assessed as growth inhibition incubated for 72 hrs by MTT assay; type: functional, cell-based; details: NIH3T3, 72 h
NIH3T3 [10] = assay: Induction of cell cycle arrest in mouse NIH3T3 cells assessed as accumulation of cells at G1 phase at 10 uM incubated for 1 day by propidium iodide staining based flow cytometry analysis (reference value: 54 %); type: toxicity; details: nih3t3, 24 h
NIH3T3 [11] = assay: Cytotoxicity against PDGF-BB stimulated mouse NIH3T3 cells assessed as growth inhibition at 5 to 25 uM incubated for 72 hrs by MTT assay; type: functional, cell-based; details: dose 5-25 µM
[12] = Inhibition of CAMK-II in mouse NIH3T3 cells assessed as growth inhibition incubated for 2 to 3 days by phase contrast microscopy analysis; type: cell-based
NIH3T3 [13] = assay: Induction of cell cycle arrest in mouse NIH3T3 cells assessed as accumulation of cells at G1 phase at 24 uM incubated for 3 days by propidium iodide staining based flow cytometry analysis; type: toxicity; details: nih3t3, 72 h, time 3 day
NIH3T3 [14] = assay: Inhibition of CAMK-II in mouse NIH3T3 cells assessed as decrease in cell count at 24 uM incubated for 2 to 3 days in presence of fetal bovine serum by phase contrast microscopy analysis; type: cell-based; details: time 2-3 day
NIH3T3 [15] = assay: Cytotoxicity against EGF stimulated mouse NIH3T3 cells assessed as growth inhibition incubated for 72 hrs by MTT assay; type: functional, cell-based; details: NIH3T3, 72 h
[16] = (§1) Inhibition of CAMK-II in mouse NIH3T3 cells using autocamtide-2 as substrate […]; type: cell-based
NIH3T3 [17] = assay: Induction of cell cycle arrest in mouse NIH3T3 cells assessed as accumulation of cells at G2/M phase at 10 uM incubated for 44 hrs followed by compound washout for 22 hrs by propidium iodide staining based flow cytometry analysis; type: toxicity; details: nih3t3, 44 h
NIH3T3 [18] = assay: Cytotoxicity against FGF stimulated mouse NIH3T3 cells assessed as decrease in cell number at 2 uM incubated for 72 hrs by MTT assay relative to control; type: functional; design: scale not given: the % may be the effect or the level left
NIH3T3 [19] = assay: Cytotoxicity against FGF stimulated mouse NIH3T3 cells assessed as growth inhibition at 5 to 25 uM incubated for 72 hrs by MTT assay; type: functional, cell-based; details: dose 5-25 µM
NIH3T3 [20] = assay: Induction of cell cycle arrest in mouse NIH3T3 cells assessed as accumulation of cells at G1 phase at 10 uM incubated for 2 to 3 day by propidium iodide staining based flow cytometry analysis (reference value: 54 %); type: toxicity; details: nih3t3, 10 µM, time 2-3 day
NIH3T3 [21] = assay: Cytotoxicity against serum stimulated mouse NIH3T3 cells assessed as inhibition of cell growth incubated for 72 hrs by MTT assay; type: functional, cell-based; details: NIH3T3, 72 h
NIH3T3 [22] = assay: Cytotoxicity against FGF stimulated mouse NIH3T3 cells assessed as growth inhibition incubated for 72 hrs by MTT assay; type: functional, cell-based; details: NIH3T3, 72 h
NIH3T3 [23] = assay: Induction of cell cycle arrest in mouse NIH3T3 cells assessed as accumulation of cells at S phase at 10 uM incubated for 44 hrs followed by compound washout for 22 hrs by propidium iodide staining based flow cytometry analysis; type: toxicity; details: nih3t3, 44 h
NIH3T3 [24] = assay: Inhibition of CAMK-II in mouse NIH3T3 cells assessed as cell growth rate after compound rinsing at 4 to 16 uM incubated for 6 to 48 hrs by MTT assay; type: cell-based; details: dose 4-16 µM, time 6-48 hrs
NIH3T3 [25] = assay: Cytotoxicity against serum stimulated mouse NIH3T3 cells assessed as decrease in cell number at 2 uM incubated for 72 hrs by MTT assay relative to control; type: functional; design: scale not given: the % may be the effect or the level left
NIH3T3 [26] = assay: Cytotoxicity against EGF stimulated mouse NIH3T3 cells assessed as growth inhibition at 5 to 25 uM incubated for 72 hrs by MTT assay; type: functional, cell-based; details: dose 5-25 µM
NIH3T3 [27] = assay: Induction of cell cycle arrest in mouse NIH3T3 cells assessed as decreased accumulation of cells at G2 phase at 10 uM incubated for 1 to 3 days by propidium iodide staining based flow cytometry analysis; type: toxicity; details: nih3t3, 10 µM, time 1-3 day
NIH3T3 [28] = assay: Induction of cell cycle arrest in mouse NIH3T3 cells assessed as decreased accumulation of cells at S phase at 10 uM incubated for 1 to 3 days by propidium iodide staining based flow cytometry analysis; type: toxicity; details: nih3t3, 10 µM, time 1-3 day
NIH3T3 [29] = assay: Inhibition of CAMK-II in mouse NIH3T3 cells assessed as accumulation of granules in presence of fetal bovine serum by phase contrast microscopy analysis; type: cell-based
NIH3T3 [30] = assay: Induction of cell cycle arrest in mouse NIH3T3 cells by propidium iodide staining based flow cytometry analysis; type: toxicity
NIH3T3 [31] = assay: as §1; type: cell-based

COc1ccc(S(=O)(=O)N(CCO)c2ccccc2CN(C)C/C=C/c2ccc(Cl)cc2)cc1
inhibition (NIH3T3 [1]): Active
Activity (NIH3T3 [2]): Active
Activity (NIH3T3 [3]): Toxic
inhibition (NIH3T3 [4]): Active
Activity (NIH3T3 [5]): Dose-Dependent Effect and Tde
inhibition (NIH3T3 [6]): Active
inhibition (NIH3T3 [7]): Active
IC50 (NIH3T3 [8]): 6 µM
IC50 (NIH3T3 [9]): 6 µM
Activity (NIH3T3 [10]): 79%
Activity (NIH3T3 [11]): Active
IC50 [12]: 1 µM
Activity (NIH3T3 [13]): Toxic
inhibition (NIH3T3 [14]): Active
IC50 (NIH3T3 [15]): 6 µM
IC50 [16]: 12 µM
Activity (NIH3T3 [17]): Non-Toxic
Activity (NIH3T3 [18]): 35%
Activity (NIH3T3 [19]): Active
Activity (NIH3T3 [20]): 95%
IC50 (NIH3T3 [21]): 12 µM
IC50 (NIH3T3 [22]): 6 µM
Activity (NIH3T3 [23]): Non-Toxic
inhibition (NIH3T3 [24]): inactive
Activity (NIH3T3 [25]): 4%
Activity (NIH3T3 [26]): Active
Activity (NIH3T3 [27]): Toxic
Activity (NIH3T3 [28]): Toxic
inhibition (NIH3T3 [29]): Active

COc1ccc(S(=O)(=O)Nc2ccccc2CN(C)C/C=C/c2ccc(Cl)cc2)cc1
inhibition (NIH3T3 [4]): inactive
Activity (NIH3T3 [30]): Not Active
inhibition (NIH3T3 [31]): inactive
